Tests used:
renal hypertensive rat [1] = test: Blood pressure lowering effect on oral administration to rats at several doses; assay type: in vivo, male Sprague-Dawley rats
Description: (§1) To induce renal hypertension, left renal artery of 4 week-old male Sprague-Dawley rats(from The Korea Research Institute of Chemical Technology) was ligated. The rats were anesthetized with ether and the surgical region on the left abdomen of the rat was shaved, disinfected, and then incised about 1 cm vertically. The renal artery near abdominal aorta was isolated carefully from surrounding tissues and veins, and then ligated completely with a suture(4/0 sterile surgical silk). The muscular strata and skin of the surgical area were sutured with a suture(4/0 sterile surgical silk). The surgical region was disinfected to prevent infection and thereafter, 200 to 250 mg/Kg/day of cephazolin sodium was injected intramuscularly for 2 days. 6 to 8 days after the ligation, rats showing systolic pressure of more than 180 mmHg were selected for renal hypertension test. The blood pressure was determined by a tail-cuff method from the tail under unanesthetized condition(Gerold, M. et al., Arzneimittrel-Forsch, 18, 1285(1968)).
(§2) Each of the compounds to be tested was administered intravenously or orally into the renal hypertensive rat. The blood pressure of the rats was determined by direct method(Chiu, A. T. et al., J. Pharmacol. Exp. Ther. 250, 867(1989)) using a catheter. The rats were anesthetized with ketamine hydrochloride(125 mg/kg, i.p.) and a catheter was filled with saline and inserted into a carotid artery and carotid vein. The surgical area was sutured with a metal clip. The rats were relaxed at least 3 hours and the catheter in the carotid artery was adapted to an isotec pressure transducer to determine their blood pressure and heart rate with a physiograph(Linearcorder WR3310). After the blood pressure was stabilized, the test compound was administered intravenously or orally. For intravenous administration, the administered volume and washing volume were 1.0 ml/Kg and 0.2 ml, respectively. The blood pressure and heart rate were measured in regular intervals up to 24 hours after the administration of the test compound and compared with those measured after the administration of the control compound Losartan.
(§3) The test compound was dissolved in 0.05N KOH for intravenous administration and suspended in Tween 80 for oral administration.
(iii) Blood pressure lowering effect The present compounds, Losartan(Dup 753) and the Merck compound were administrated orally to rats in 10, 3, 1, 0.3 and 0.1 mg/kg under the same condition as in (ii) and the blood pressure lowering effect was determined.

angiotensin II receptor = test: Angiotensin II Receptor Binding Assay ([3H] angiotensin II binding inhibition); settings: [3H] angiotensin II ligand; 60 minutes, 25° C.; test concentration not given
Description: In accordance with the procedure disclosed in Chiu, A. T. et al., Eur. J. Pharm., 157, 13(1981), a ligand marked with a radioisotope was reacted with an angiotensin II receptor and the reactant was filtered with a glass fiber to remove unreacted ligand. After washing the filter, the amount of the remaining isotope was measured to determine the binding activity of the ligand, as described below in detail.
Sprague-Dawley rats and Wistar rats of 250 to 350 g(from The Korea Research Institute of Chemical Technology) were tested and the test procedures were carried out at 4° C., unless otherwise specified. Adrenal gland was separated from the Sprague-Dawley rats(liver, in the case of Wistar rats) into cortex and medulla. The separated adrenal cortex and medulla were washed with a sucrose buffer solution (0.2M sucrose, 1 mM EDTA, 10 mM Tris, pH 7.2) and homogenized in the same buffer solution by using a Teflon pestle and a Brinkmann homogenizer. The homogenates were centrifuged at 3,000 Xg for 10 minutes to remove precipitates and further centrifuged at 12,000 Xg for 13 minutes. The final supernatants were centrifuged at 102,000 Xg for 1 hour to obtain precipitates, which were washed with a Tris buffer solution(50 mM Tris, 5 mM MgCl2, pH 7.2) and re-centrifuged at 102,000 Xg for 1 hour. The resulting precipitates were immediately processed at the following step or stored at -70° C.
The precipitates were suspended in a Tris buffer solution. The amount of protein was determined by using a Bio-Rad DC protein analyzing kit and the protein concentration was adjusted to the amounts of: 0.2 to 0.3 mg/ml(Sprague-Dawley rat: adrenal cortex), 1.5 to 2.0 mg/ml(Sprague-Dawleyrat: adrenal medulla), and 1.5 to 2.0 mg/ml(Wistar rat: liver). To the suspension, bovine serum albumin(BSA) was added to a concentration of 0.25 wt % and the resultant was immediately processed at the following step or stored at -70° C.
(ii) Measurement of angiotensin II receptor binding capacity 50 μl(based on ligand) of [^3 H] angiotensin II(NEN, NET-446) and 10 μl of each of the test compounds with various concentrations were added to the buffer solution(50 mM Irris(pH 7.2), 5 mM MgCl2, 0.25% BSA) to adjust the final volume to be 0.5 ml. 100 μl of the receptor suspension was added thereto and the resulting solution was reacted for 60 minutes while stirring in a water bath at 25° C. 3 ml of cold buffer solution for analysis was added to cease the reaction. The isotope which was bound to the receptor was isolated from the resultant by using Brandel Cell Harvester System with Whatman glass fiber GF/C. After washing the filter, the radioactivity of the filter was determined by using a liquid scintillation counter. Binding inhibition(%) of the test compound was calculated as follows:
Binding Inhibition(%)=[{(T--B)-(S--B)}/(T--B)]×100
wherein T is cpm of the reaction product untreated with the test compound, S is cpm of the reaction product treated with the test compound, and B is cpm of blank test.

renal hypertensive rat [2] = test: Blood pressure lowering effect in renal hypertension (renal hypertensive rats, intravenous or oral); assay type: in vivo, male Sprague-Dawley rats; settings: 1 mg, read-out: Maxium Blood Pressure Lowering Effect(%)
Description: as §1, §2, §3

renal hypertensive rats = test: Duration of action in renal hypertensive rats; assay type: in vivo, male Sprague-Dawley rats; settings: oral; for blood pressure lowering effect with time: 1 mg/kg
Description: as §1, §2
The present(Example 28) and control(Merck) compounds were tested using the hypertensive rats of test 2(i). 1 mg or 3 mg/kg of each compound was administered orally and blood pressure lowering effect with time was determined to measure the duration of action of the compounds.

unanesthetized dogs = test: Blood pressure lowering effect in unanesthetized dogs (furosemide treated); assay type: in vivo, dog; parameters: Maximum blood pressure lowering effect in a dog: unit not given here; settings: oral; for Blood pressure variation with time: dogs, 1.0 mg
Description: A number of dogs were fed freely in a feeding room and those weighing 7 to 12 kg in good health were selected regardless of their gender.
The test dogs were anesthetized with 30 mg/kg of pentobarbital sodium by intravenous injection and the left femoral artery and femoral vein were separated carefully. Silicone catheter, specially prepared and filled with saline treated with heparin(1,000 IU/ml), was cannulated into the blood vessels. After the surgery, the dogs were constrained to measure their blood pressure continuously with Gould 2000 physiograph adapted to a Grass P23 XL pressure transducer; and their heart rates were monitored with ECG/Biotacho amplifier. The dogs were tested at least 2 days after the surgery.
10 mg/kg of furosemide was injected intramuscularly 18 hours(in case of intravenous injection, 2 hours) before the beginning of the test (administration of the test compound) to improve the activity of renin in blood plasma. After the injection of furosemide, neither food nor water was provided. The test compound was suspended in Tween 80 and administered in an amount of 20 mg/kg orally. The blood pressure and heart rate were measured up to 8 hours after the administration of each test compound.
The maximum blood pressure lowering effect of the present compounds and the control compounds were determined in different amounts of administration using the same method as […]

CCCCc1nc2c(C)c(-c3ccccc3)c(C(OC)OC)nc2n1Cc1ccc(-c2ccccc2-c2nnn[nH]2)cc1 [Example 28, 2-butyl-5-dimethoxymethyl-6-phenyl-7-methyl-3-[2'-(1H-tetrazol-5-yl)-biphenyl-4-ylmethyl]-3H-imidazo[4,5-b]pyridine]
blood pressure lowering effect (renal hypertensive rat [1]; 0.3 mg/kg): 13% | blood pressure lowering effect (renal hypertensive rat [1]; 1 mg/kg): 47% | blood pressure lowering effect compared with the Merck compound (renal hypertensive rat [1]; Table 2): far superior effect | Binding Inhibition(%) (angiotensin II receptor): 50.5% | change in vivo at 1 mg (renal hypertensive rat [2]): -47% | duration of action compared with the Merck compound (renal hypertensive rats; 1 mg/kg versus Merck compound 3 mg/kg): far longer duration of action | blood pressure lowering effect with time (renal hypertensive rats; 0 min): 0% | blood pressure lowering effect with time (renal hypertensive rats; 10 min): -16% | blood pressure lowering effect with time (renal hypertensive rats; 20 min): -17% | blood pressure lowering effect with time (renal hypertensive rats; 30 min): -18% | blood pressure lowering effect with time (renal hypertensive rats; 60 min): -21% | blood pressure lowering effect with time (renal hypertensive rats; 90 min): -34% | blood pressure lowering effect with time (renal hypertensive rats; 120 min): -33% | blood pressure lowering effect with time (renal hypertensive rats; 240 min): -46% | blood pressure lowering effect with time (renal hypertensive rats; 360 min): -47% | blood pressure lowering effect with time (renal hypertensive rats; 1320 min): -25% | blood pressure lowering effect with time (renal hypertensive rats; 1440 min): -28% | Maximum blood pressure lowering effect in a dog (unanesthetized dogs; 0.1 mg/kg): 9 | Maximum blood pressure lowering effect in a dog (unanesthetized dogs; 0.3 mg/kg): 18 | Maximum blood pressure lowering effect in a dog (unanesthetized dogs; 1 mg/kg): 33 | Blood pressure variation with time (unanesthetized dogs; 0.5 hr): -3.3% | Blood pressure variation with time (unanesthetized dogs; 1 hr): -18.9% | Blood pressure variation with time (unanesthetized dogs; 2 hr): -27.7% | Blood pressure variation with time (unanesthetized dogs; 4 hr): -33.3% | Blood pressure variation with time (unanesthetized dogs; 6 hr): -29.5% | Blood pressure variation with time (unanesthetized dogs; 8 hr): -27.1%
